Test: osmotic coefficient (dimensionless); mn = molality of the nth substance listed, in mol/kg
Settings: 298.15 K, Liquid, isopiestic method

O=S(=O)([O-])[O-].[K+].[K+] [potassium sulfate] + O
Settings	osmotic coefficient
m1 = 0.4526	0.693
m1 = 0.4667	0.692
m1 = 0.4747	0.691
m1 = 0.5108	0.686
m1 = 0.5495	0.682
m1 = 0.5708	0.68
m1 = 0.6064	0.677
m1 = 0.6321	0.675
m1 = 0.6366	0.673
m1 = 0.6529	0.673
